{
  "source": "paper PMC2266582",
  "about": "(The Journal of General Physiology, 2005)",
  "key": {"KcsA tetramer [1]": {"target": "T1, KcsA tetramer (Streptomyces lividans, UniProt P0A334)", "T1 sequence (P0A334 1-160)": "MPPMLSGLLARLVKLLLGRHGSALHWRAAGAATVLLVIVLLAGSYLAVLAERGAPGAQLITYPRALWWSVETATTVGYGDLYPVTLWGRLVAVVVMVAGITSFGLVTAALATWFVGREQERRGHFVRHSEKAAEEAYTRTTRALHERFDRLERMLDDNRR", "test": "Temperature dependence of KcsA tetramer monitored by SDS-PAGE", "settings": "for effect on temperature dependence of KcsA tetramer: 5 mM MgCl2 or 5 mM CaCl2 added to 100 mM choline Cl; for thermal stability of KcsA tetramer: 100 mM KCl or 100 mM NaCl, heated 10 min at 60–99°C"}, "[2]": {"settings": "cited from earlier work; for Pauling crystal radii: ref Bezanilla and Armstrong, 1972, Armstrong, 2003"}, "KcsA tetramer [3]": {"target": "T1, KcsA tetramer", "test": "Tetramer protection titration of stabilizing cations against high temperature", "assay_type": "binding", "settings": "100 mM choline Cl"}, "KcsA tetramer [4]": {"target": "T1, KcsA tetramer", "test": "Time course of decay of KcsA tetramer at 90°C", "assay_type": "binding"}, "KcsA tetramer [5]": {"target": "T1, KcsA tetramer", "assay_type": "binding"}, "[6]": {"settings": "values determined by Pauling, ref Hille (2001)"}, "[7]": {"settings": "K0.5 (cation concentration at half-maximal stabilization), fit to Eq. 1, heated 10 min at 90°C, 10 mM Hepes-Tris pH 7.4"}},
  "note": "Like-named read-outs stand apart in the source and are kept apart here.",
  "data": [
    {"compound": "[Ca+2].[Cl-].[Cl-]", "note": "[Ca^2+, CaCl2]", "values": [
      {"measurement": "effect on temperature dependence of KcsA tetramer", "setting": "KcsA tetramer [1]", "result": "small protective effect at temperatures >60 °C"}
    ]},
    {"compound": "[Cs+]", "note": "[Cs^+, CsCl]", "values": [
      {"measurement": "Radius", "setting": "[2]; [6]", "result": 1.69, "unit": "Å"},
      {"measurement": "EC50", "setting": "KcsA tetramer [3]; [7]", "result": "4100 ± 3500", "unit": "µM"}
    ]},
    {"compound": "[Sr+2]", "note": "[Sr^2+, SrCl2]", "values": [
      {"measurement": "Radius", "setting": "[2]; [6]", "result": 1.13, "unit": "Å"},
      {"measurement": "EC50", "setting": "KcsA tetramer [3]; K0.5 of tetramer protection titration, heated 10 min at 85°C", "result": 11, "unit": "µM"}
    ]},
    {"compound": "[K+]", "note": "[K^+, KCl]", "values": [
      {"measurement": "Pauling crystal radii", "setting": "[2]", "result": 1.33, "unit": "Å"},
      {"measurement": "Radius", "setting": "[2]; [6]", "result": 1.33, "unit": "Å"},
      {"measurement": "time course of tetramer denaturation", "setting": "KcsA tetramer [4]; 0.1 mM K^+ added to 100 mM choline Cl, 90°C", "result": "complex slower biphasic decay"},
      {"measurement": "loss of tetramer", "setting": "KcsA tetramer [4]; 100 mM KCl, 30 min of incubation at 90°C", "result": "virtually no loss of tetramer"},
      {"measurement": "EC50", "setting": "KcsA tetramer [3]; [7]", "result": "1500 ± 2500", "unit": "µM"},
      {"measurement": "thermal stability of KcsA tetramer", "setting": "KcsA tetramer [1]", "result": "fully stable"}
    ]},
    {"compound": "N", "note": "[NH4 ^+, NH4Cl]", "values": [
      {"measurement": "Radius", "setting": "[2]; estimated by a molecular graphics approach, ref Sun et al. (1997)", "result": 1.8, "unit": "Å"}
    ]},
    {"compound": "[Tl+]", "note": "[Tl^+, Tl acetate]", "values": [
      {"measurement": "Radius", "setting": "[2]; [6]", "result": 1.40, "unit": "Å"},
      {"measurement": "EC50", "setting": "KcsA tetramer [3]; [7]", "result": 1100, "unit": "µM"}
    ]},
    {"compound": "[Cl-].[Cl-].[Mg+2]", "note": "[Mg^2+, MgCl2]", "values": [
      {"measurement": "effect on temperature dependence of KcsA tetramer", "setting": "KcsA tetramer [1]", "result": "destabilize KcsA at lower temperatures"}
    ]},
    {"compound": "[Na+]", "note": "[Na^+, NaCl]", "values": [
      {"measurement": "Pauling crystal radii", "setting": "[2]", "result": 0.95, "unit": "Å"},
      {"measurement": "thermal stability of KcsA tetramer", "setting": "KcsA tetramer [1]", "result": "progressively lost at temperatures >65 °C"}
    ]},
    {"compound": "C[N+](C)(C)CCO.[Cl-]", "note": "[choline^+, choline Cl]", "values": [
      {"measurement": "time constant of single exponential decay of tetramer", "setting": "KcsA tetramer [4]; 100 mM choline Cl, absence of K^+, 90°C", "result": 16.5, "unit": "s"}
    ]},
    {"compound": "[Li+]", "note": "[Li^+, LiCl]", "values": [
      {"measurement": "IC50", "setting": "KcsA tetramer [5]", "result": 57000, "unit": "µM"}
    ]},
    {"compound": "[Rb+]", "note": "[Rb^+, RbCl]", "values": [
      {"measurement": "Radius", "setting": "[2]; [6]", "result": 1.48, "unit": "Å"},
      {"measurement": "EC50", "setting": "KcsA tetramer [3]; [7]", "result": "1700 ± 3300", "unit": "µM"}
    ]},
    {"compound": "[Ba+2]", "note": "[Ba^2+, BaCl2]", "values": [
      {"measurement": "Radius", "setting": "[2]; [6]", "result": 1.35, "unit": "Å"},
      {"measurement": "EC50", "setting": "KcsA tetramer [3]; K0.5 of tetramer protection titration, heated 10 min at 90°C", "result": 0.21, "unit": "µM"}
    ]}
  ]
}
